Molecular target: T1, α3β3γ complex of BF1 (F1-ATPase from Bacillus subtilis) (Bacillus subtilis, UniProt P37808+P37809, P37808:R354W)
T1 construct: gene atpA; recombinant alpha3beta3gamma subcomplex of F1-ATPase (no delta, no epsilon), from plasmid pET21-BF1; with ATP synthase gamma chain
Experiment: tryptophan fluorescence quenching titration (ex […] nm, em […] nm), simple binding equation
Conditions: read-out: apparent Kd

T1 sequence (P37809 whole entry): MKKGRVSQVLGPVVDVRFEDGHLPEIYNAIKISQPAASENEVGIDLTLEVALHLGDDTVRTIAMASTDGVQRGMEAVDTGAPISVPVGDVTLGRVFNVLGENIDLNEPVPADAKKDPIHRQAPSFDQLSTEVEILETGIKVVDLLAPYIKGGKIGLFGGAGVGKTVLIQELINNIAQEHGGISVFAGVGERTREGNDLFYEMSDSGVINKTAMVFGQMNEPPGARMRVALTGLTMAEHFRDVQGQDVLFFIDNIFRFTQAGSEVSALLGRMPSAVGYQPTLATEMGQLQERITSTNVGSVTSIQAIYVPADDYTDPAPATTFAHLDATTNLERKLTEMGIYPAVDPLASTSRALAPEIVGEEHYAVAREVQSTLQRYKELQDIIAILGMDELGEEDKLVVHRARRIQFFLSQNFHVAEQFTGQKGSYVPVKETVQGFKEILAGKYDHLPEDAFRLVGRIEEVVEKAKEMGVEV
T1 sequence (P37810 whole entry, further chain): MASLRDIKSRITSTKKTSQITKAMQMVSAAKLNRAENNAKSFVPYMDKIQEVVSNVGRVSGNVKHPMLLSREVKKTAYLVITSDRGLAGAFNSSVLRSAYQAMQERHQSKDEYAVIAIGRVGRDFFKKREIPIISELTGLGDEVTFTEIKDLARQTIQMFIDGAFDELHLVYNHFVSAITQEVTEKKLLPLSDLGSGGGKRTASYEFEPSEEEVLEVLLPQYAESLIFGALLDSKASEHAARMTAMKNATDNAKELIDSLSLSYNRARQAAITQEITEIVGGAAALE
T1 sequence (P37808 2-502 R354W): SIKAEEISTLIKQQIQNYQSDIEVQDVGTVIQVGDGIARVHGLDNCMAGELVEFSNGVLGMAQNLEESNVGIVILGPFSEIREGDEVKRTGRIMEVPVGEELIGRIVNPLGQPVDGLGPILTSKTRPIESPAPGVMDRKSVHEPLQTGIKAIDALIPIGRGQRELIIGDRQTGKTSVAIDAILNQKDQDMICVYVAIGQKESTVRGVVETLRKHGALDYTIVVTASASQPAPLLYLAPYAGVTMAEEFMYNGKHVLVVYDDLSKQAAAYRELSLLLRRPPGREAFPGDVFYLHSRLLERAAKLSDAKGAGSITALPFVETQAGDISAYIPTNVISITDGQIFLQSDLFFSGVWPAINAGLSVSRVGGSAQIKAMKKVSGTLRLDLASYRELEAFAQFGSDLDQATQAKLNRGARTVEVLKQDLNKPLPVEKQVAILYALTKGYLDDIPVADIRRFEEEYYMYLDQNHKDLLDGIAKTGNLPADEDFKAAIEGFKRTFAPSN

Kd: 34.4 ± 2.9 µM
SMILES: Nc1ncnc2c1ncn2[C@@H]1O[C@H](COP(=O)(O)OP(=O)(O)OP(=O)(O)O)[C@@H](O)[C@H]1O [ATP]
